As a reminder, the IC50 is the point on the concentration scale where inhibition reaches its midpoint. Low readings indicate greater potency in that assay, high ones weaker potency in that assay.

One experiment addresses c-Src (Gallus gallus, UniProt P00523). Kind of experiment: biochemical. Also noted: species or system Chicken.
Experiment [1] deals with c-Met mutations of L1195 and F1200. To be noted: type I inhibitors; Fig. S10; cited from earlier work.
Experiment [2] deals with c-Met mutations of D1228 and Y1230. To be noted: cited from earlier work; for affinity against mutations of D1228 and Y1230: type I inhibitors, Fig. S10.
For the next experiment, the system named is c-Met F1200I mutant. As to conditions: Fig. S10; cited from earlier work.
Another experiment deals with c-Met. As to conditions: no reference given; cited from earlier work.

For the compound `CCN1Cc2c(ccc(F)c2C#N)O[C@@H](C)CNC(=O)c2c(N)nn3ccc1nc23` [TPX-0022], on c-Src, the IC50 is 3.7 nM.

`CNC(=O)c1ccc(-c2cnc3ncc(Cc4ccc5ncccc5c4)n3n2)cc1F` [capmatinib]: in experiment [1], the “activity against mutations of L1195 and F1200” value (“activity against mutations” below) is on record as “potent activity”. Also, the “affinity against mutations of D1228 and Y1230” value (“affinity against mutations” below) in experiment [2] is “low affinity”.

With `C[C@@H](Oc1cc(-c2cnn(C3CCNCC3)c2)cnc1N)c1c(Cl)ccc(F)c1Cl` [crizotinib], the “potency for the F1200I mutant” value in the experiment on c-Met F1200I mutant was 50 to 200 nM.

Regarding `COc1cc2nccc(Oc3ccc(NC(=O)C4(C(=O)Nc5ccc(F)cc5)CC4)cc3)c2cc1OC` [cabozantinib], the “ability to overcome mutations of D1228 and Y1230” value in experiment [2] (type II inhibitor) is “could overcome”.

`C[C@H]1CNC(=O)c2cnn3ccc(nc23)N[C@H](C)c2cc(F)ccc2O1` [TPX-0005]: the “affinity for c-Met” value in the experiment on c-Met is “low affinity”.

Consider `CN1CCC(COc2cnc(-c3cccc(Cn4nc(-c5cccc(C#N)c5)ccc4=O)c3)nc2)CC1` [tepotinib], for which the “activity against mutations” value in experiment [1] is recorded as “potent activity”. Further, the “affinity against mutations” value in experiment [2] is given as “low affinity”.

For the compound `C[C@@H](c1ccc2nccn2c1)n1nnc2ncc(-c3cnn(C)c3)nc21` [savolitinib], the “activity against mutations” value in experiment [1] was “potent activity”. The “affinity against mutations” value in experiment [2] was “low affinity”.

(Values after publication PMC10708960 (Computational and Structural Biotechnology Journal, 2023).)
